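Method: 48-hour compound exposure of cells in 96-well plates, five concentrations, linear interpolation of endpoints. GI50 is the concentration that inhibits growth by half. TGI denotes the concentration required for complete inhibition of growth.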
Assays:
Experiment in all cases: growth of human tumour cells (NCI), 48 h
786-0 renal = tested on: 786-0 renal
IGROV1 ovarian = tested on: IGROV1 ovarian
KM12 colon = tested on: KM12 colon
MCF7 breast = tested on: MCF7 breast
NCI-H226 lung = tested on: NCI-H226 lung
NCI-H522 lung = tested on: NCI-H522 lung
SK-OV-3 ovarian = tested on: SK-OV-3 ovarian
SNB-19 CNS = tested on: SNB-19 CNS
CAKI-1 renal = tested on: CAKI-1 renal
NCI-H23 lung = tested on: NCI-H23 lung

Row | SMILES | TGI (786-0 renal) | TGI (IGROV1 ovarian) | TGI (KM12 colon) | TGI (MCF7 breast) | TGI (NCI-H226 lung) | TGI (NCI-H522 lung) | TGI (SK-OV-3 ovarian) | TGI (SNB-19 CNS) | TGI (CAKI-1 renal) | TGI (NCI-H23 lung) | GI50 (IGROV1 ovarian) | GI50 (KM12 colon) | GI50 (NCI-H226 lung)
1 | C=CCC(C(=O)Nc1cccc2[nH]cnc12)C(=O)OCC (stereo not drawn) | > 100 µM | > 100 µM | > 100 µM | > 100 µM | > 100 µM | > 100 µM | > 100 µM | > 100 µM |  |  |  |  | 
2 | COc1ccc(N2C(=O)C3c4[nH]c5ccccc5c4C4CCCCC4C3C2=O)cc1 (stereo not drawn) | 23.8 µM | 64.3 µM | > 100 µM |  | > 100 µM | > 100 µM | 52.7 µM | > 100 µM | > 100 µM | > 100 µM |  |  | 
3 | O=C1NCCS(=O)(=O)N2CCC[C@@H]12 | > 100 µM | > 100 µM | > 100 µM |  | > 100 µM | > 100 µM | > 100 µM | > 100 µM | > 100 µM | > 100 µM |  |  | 
4 | O=C1c2ccccc2C(=O)c2[nH]c(Cc3ccc(F)cc3)nc21 | 43.8 µM | 26.2 µM | 32.9 µM |  | 45.9 µM | 34.3 µM |  | 51.3 µM | 50.2 µM |  |  |  | 
5 | COc1ccc(C2=NN=C3C(c4ccccc4)=Nc4ccccc4N3C2)cc1 | > 100 µM | > 100 µM | > 100 µM | 85 µM | > 100 µM |  | > 100 µM | > 100 µM |  | > 100 µM |  |  | 
6 | CCCC(=O)[O-].N.N.N.N.N.[Co+3].[O-][Cl+3]([O-])([O-])[O-] | > 100 µM | > 100 µM | > 100 µM |  |  | > 100 µM | > 100 µM | > 100 µM |  | > 100 µM |  |  | 
7 | CC1(C)N=C(c2ccccn2)C(c2ccccn2)=NC1(C)C | > 100 µM | > 100 µM | > 100 µM |  | > 100 µM |  |  | > 100 µM | > 100 µM |  |  |  | 
8 | COc1ccc(Sc2ccccc2N)cc1 |  | > 100 µM | > 100 µM |  | 89.4 µM |  | > 100 µM | > 100 µM |  | > 100 µM |  |  | 
9 | CCOC(=O)N1CCC(=C2c3ccc(Cl)cc3CCc3cccnc32)CC1 | 33.4 µM | 8.22 µM | 24.3 µM | 23.8 µM | 40.6 µM |  | 29.1 µM |  |  | 35.6 µM |  |  | 
10 | C=C(C)CNC(=S)N(N)c1ccc2ccccc2c1 | > 100 µM | > 100 µM | 62.4 µM | > 100 µM | > 100 µM | > 100 µM | > 100 µM | > 100 µM |  | > 100 µM |  |  | 
11 | Cc1cc(S(=O)(=O)/N=C(/NN)NNc2cccc(C(F)(F)F)n2)c(S)cc1Cl | 47.9 µM |  | 37.2 µM |  | 46 µM | 60.4 µM | 53 µM | 68.8 µM | 57.1 µM |  |  |  | 
12 | CN1C/C(=C\C=C\c2ccccc2)C(=O)/C(=C/C=C/c2ccccc2)C1 | > 100 µM | > 100 µM | > 100 µM |  | > 100 µM | > 100 µM | > 100 µM | > 100 µM | > 100 µM | > 100 µM |  |  | 
13 | NC(CSSCC(N)Cc1ccccc1)Cc1ccccc1 (stereo not drawn) | > 100 µM | > 100 µM | 94 µM |  |  | 30.9 µM | > 100 µM | > 100 µM |  | > 100 µM |  |  | 
14 | O=C(O)CCC(NC(=O)c1ccc(Nc2nc3cc(C(F)(F)F)ccc3nc2C(=O)O)cc1)C(=O)O (stereo not drawn) | > 100 µM | > 100 µM | > 100 µM | > 100 µM | > 100 µM | > 100 µM |  | > 100 µM |  | > 100 µM |  |  | 
15 | O=c1oc2ccccc2c(O)c1C(C/C(CCN1CCCC1)=N\Nc1ccccc1)c1ccccc1 (stereo not drawn) | > 100 µM | > 100 µM | > 100 µM |  | > 100 µM | > 100 µM | > 100 µM | > 100 µM | > 100 µM | > 100 µM |  |  | 
16 | COC(=O)C(NC(=O)c1ccccc1)C(c1ccc(Cl)cc1)P(=O)(OC)OC (stereo not drawn) |  | > 100 µM | > 100 µM |  | > 100 µM | > 100 µM | > 100 µM | > 100 µM | > 100 µM | > 100 µM |  |  | 
17 | COc1cc(Br)c(CC2C3=C(CCN2C(=O)C2CCC2)CC(=O)CC3)cc1O (stereo not drawn) | 95.8 µM | > 100 µM | 73.3 µM |  | > 100 µM | 34.3 µM | > 100 µM | > 100 µM |  | 51.9 µM |  |  | 
18 | CCOC(=O)c1c(-c2cccc3ccccc23)c(C#N)c(=S)n(C2OC(COC(C)=O)C(OC(C)=O)C(OC(C)=O)C2OC(C)=O)c1C (stereo not drawn) | > 100 µM | > 100 µM | > 100 µM | > 100 µM | > 100 µM | > 100 µM | > 100 µM | > 100 µM |  | > 100 µM |  |  | 
19 | [N-]=[N+]=C(C(=O)N1CCCC1=O)S(=O)(=O)c1ccccc1 | > 100 µM | > 100 µM | > 100 µM | > 100 µM |  | > 100 µM |  | > 100 µM |  | > 100 µM |  |  | 
20 | Cc1nc2ccccc2c(/C=C/c2ccc(Cl)cc2)c1C(=O)/C=C/c1ccccc1 |  | 3.68 µM | 3.04 µM |  | 3.22 µM |  |  |  |  |  | 1.24 µM | 1.56 µM | 1.58 µM
21 | COc1ccc2c(c1)OC[C@@H]1c3cc(O)c(OCc4ccccc4)cc3O[C@H]21 | > 100 µM | > 100 µM | > 100 µM |  | 95.7 µM | 51.9 µM | > 100 µM | > 100 µM | 84.8 µM | 67.9 µM |  |  | 

— PubChem BioAssay (NCI)
